Laboratory results from patent US20220315554A1, “COMPOUNDS COMPRISING A […] LIGAND AND USE THEREOF” (priority 2019, published 2022).
pIC50: −log10 of the molar value. Numbered stars: 1 amine (or outer) side, 2 acyl side, 3 side chain; on linkers, the order of the positions; unused ones are H or OH. Bridge positions count the residues as written; N and C are the ends. Square brackets hold non-standard residues; d marks the D form. Peptide text beside a SMILES is read from it. * marks the point of attachment. DOTA = O=C(O)CN1CCN(CC(=O)O)CCN(CC(=O)*)CCN(CC(=O)O)CC1; mXylylene = c1cc(C[*:1])cc(C[*:2])c1; 3Pal = N[C@@H](Cc1cccnc1)C(=O)O

Columns and labels:
[1] = biological target: T1, FAP-expressing human WI-38 fibroblasts (Homo sapiens, UniProt Q12884); assay: Competitive FACS binding assay; settings: pIC50 Category (FACS), competition with 3 nM Cy5-labeled compound, 4° C., 1 hour
T1 construct: FAP-expressing human WI-38 fibroblasts (ECACC) were cultured in EMEM; host or cells: WI-38 human fibroblasts
T1 sequence (Q12884 1-760): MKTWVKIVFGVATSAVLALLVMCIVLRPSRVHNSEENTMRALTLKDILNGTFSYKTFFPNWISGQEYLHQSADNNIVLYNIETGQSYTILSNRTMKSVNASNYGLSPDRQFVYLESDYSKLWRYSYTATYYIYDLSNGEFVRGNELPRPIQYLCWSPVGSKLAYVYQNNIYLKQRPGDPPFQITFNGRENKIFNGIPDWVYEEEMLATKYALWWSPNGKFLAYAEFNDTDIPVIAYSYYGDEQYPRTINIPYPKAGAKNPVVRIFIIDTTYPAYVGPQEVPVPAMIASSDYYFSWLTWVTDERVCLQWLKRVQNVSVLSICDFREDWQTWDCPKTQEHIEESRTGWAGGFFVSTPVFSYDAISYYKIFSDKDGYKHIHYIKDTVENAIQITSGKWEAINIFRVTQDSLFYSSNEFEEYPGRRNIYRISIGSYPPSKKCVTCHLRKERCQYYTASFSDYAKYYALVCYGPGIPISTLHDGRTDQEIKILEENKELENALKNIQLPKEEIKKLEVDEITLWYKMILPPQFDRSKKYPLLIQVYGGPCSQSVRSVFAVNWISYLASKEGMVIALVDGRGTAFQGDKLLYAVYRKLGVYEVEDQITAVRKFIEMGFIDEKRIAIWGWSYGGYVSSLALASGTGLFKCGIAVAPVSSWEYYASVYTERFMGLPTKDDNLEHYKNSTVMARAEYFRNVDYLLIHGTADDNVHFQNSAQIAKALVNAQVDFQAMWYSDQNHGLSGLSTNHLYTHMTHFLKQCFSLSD
Method: Cells were analyzed in an Attune NxT flow cytometer. […]

[2] = biological target: T2, Human recombinant FAP (Homo sapiens, UniProt Q12884); assay: FRET-based FAP protease activity assay; type: biochemical; design: purchased R&D systems 3715-SE; settings: pIC50 Category (Activity), FRET substrate, 37° C.
T2 sequence (Q12884 1-760): T1 sequence (Q12884 1-760)

| Compound | pIC50 [1] | pIC50 [2] | pIC50 ([1]; WI-38 fibroblasts) | pIC50 ([2]; recombinant human FAP) |
| --- | --- | --- | --- | --- |
| CCCC[C@H](NC(=O)CCC(=O)NCCCOCCOCCOCCCNC(=O)[C@H](CCC(=O)NC[C@H](O)[C@@H](O)[C@H](O)[C@H](O)CO)NC(=O)[C@H](CCC(=O)NC[C@H](O)[C@@H](O)[C@H](O)[C@H](O)CO)NC(=O)C(CNCCN)CNCCN)C(=O)N[C@H]1CSCc2cccc(c2)CSC[C@@H](C(=O)O)NC(=O)[C@H](Cc2ccccc2)NC(=O)[C@H](CCC(=O)O)NC(=O)[C@H]([C@@H](C)O)NC(=O)[C@@H]2CCCN2C(=O)[C@@H]2CCCN2C1=O [3BP-4266, N4Ac-Glu(AGLU)-Glu(AGLU)-Ttds-Nle-[Cys-(3MeBn)-Pro-Pro-Thr-Glu-Phe-Cys]-OH] | 7.10 to 8.00 | 7.10 to 8.00 | – | – |
| CCCCCC(=O)N[C@H]1CSCc2cc(cc(CN3CCNCC3)c2)CSC[C@@H](C(=O)O)NC(=O)[C@H](Cc2ccccc2)NC(=O)[C@H](CCC(N)=O)NC(=O)[C@H]([C@@H](C)O)NC(=O)[C@@H]2CCCN2C(=O)[C@@H]2CCCN2C1=O [3BP-4181, Hex-[Cys-(tMeBn(H-PP))-Pro-Pro-Thr-Gln-Phe-Cys]-OH] | 7.10 to 8.00 | 7.10 to 8.00 | – | – |
| CCCCCC(=O)N[C@H]1CSCc2cc(CSCCNC(=O)CN3CCN(CC(=O)O)CCN(CC(=O)O)CC3)cc(c2)CSC[C@@H](C(=O)O)NC(=O)[C@H](Cc2ccccc2)NC(=O)[C@H](CCC(N)=O)NC(=O)[C@H]([C@@H](C)O)NC(=O)[C@@H]2CCCN2C(=O)[C@@H]2CCCN2C1=O [3BP-4310, Hex-[Cys-(tMeBn(NOTA-AET))-Pro-Pro-Thr-Gln-Phe-Cys]-OH] | > 8.00 | > 8.00 | – | – |
| CSCC[C@H](NC(C)=O)C(=O)N[C@H]1CSCc2cccc(c2)CSC[C@@H](C(=O)N[C@@H](CC(=O)O)C(=O)N[C@@H](Cc2c[nH]cn2)C(=O)N[C@@H](Cc2cccnc2)C(=O)N[C@@H](CCCNC(=N)N)C(=O)N[C@@H](CC(=O)O)C(N)=O)NC(=O)[C@H](Cc2ccccc2)NC(=O)[C@H](CCC(=O)O)NC(=O)[C@H]([C@@H](C)O)NC(=O)[C@@H]2CCCN2C(=O)[C@@H]2CCCN2C1=O [3BP-3192, Ac-Met-[Cys(3MeBn)-Pro-Pro-Thr-Glu-Phe-Cys]-Asp-His-Mpa-Arg-Asp-NH2] (Ac-MCPPTEFCDH[3Pal]RD-NH2; linker 2-8 via mXylylene) | – | – | > 8.00 | > 8.00 |
| CSCC[C@H](NC(=O)CN1CCN(CC(=O)O)CCN(CC(=O)O)CCN(CC(=O)O)CC1)C(=O)N[C@H]1CSCc2cccc(c2)CSC[C@@H](C(=O)N[C@@H](CC(=O)O)C(=O)N[C@@H](Cc2c[nH]cn2)C(=O)N[C@@H](Cc2ccccc2)C(=O)N[C@@H](CCCNC(=N)N)C(=O)N[C@@H](CC(=O)O)C(N)=O)NC(=O)[C@H](Cc2ccccc2)NC(=O)[C@H](CCC(=O)O)NC(=O)[C@H]([C@@H](C)O)NC(=O)[C@@H]2CCCN2C(=O)[C@@H]2CCCN2C1=O [3BP-3170, DOTA-Met-[Cys(3MeBn)-Pro-Pro-Thr-Glu-Phe-Cys]-Asp-His-Phe-Arg-Asp-NH2] ({DOTA}-MCPPTEFCDHFRD-NH2; linker 2-8 via mXylylene) | – | – | 6.10 to 7.00 | 6.10 to 7.00 |
| CCCCCC(=O)N[C@H]1CSCc2cc(CSCCNC(=O)[C@H](CS)NC(=O)[C@H](CC(=O)O)NC(=O)[C@@H](N)CC(=O)O)cc(c2)CSC[C@@H](C(=O)O)NC(=O)[C@H](Cc2ccccc2)NC(=O)[C@H](CCC(N)=O)NC(=O)[C@H]([C@@H](C)O)NC(=O)[C@@H]2CCCN2C(=O)[C@@H]2CCCN2C1=O [3BP-4303, Hex-[Cys-(tMeBn(H-Asp-Asp-Cys-AET))-Pro-Pro-Thr-Gln-Phe-Cys]-OH] | 6.10 to 7.00 | 7.10 to 8.00 | – | – |
| CCCC[C@H](NC(=O)CC[C@H](NC(=O)C(CNCCN)CNCCN)C(=O)O)C(=O)N[C@H]1CSCc2cccc(c2)CSC[C@@H](C(=O)O)NC(=O)[C@H](Cc2ccccc2)NC(=O)[C@H](CCC(N)=O)NC(=O)[C@H]([C@@H](C)O)NC(=O)[C@@H]2CCCN2C(=O)[C@@H]2CCCN2C1=O [3BP-4244, N4Ac-gGlu-Nle-[Cys-(3MeBn)-Pro-Pro-Thr-Gln-Phe-Cys]-OH] | < 6.00 | < 6.00 | – | – |
